Test results from patent publication US20110230481A2, “DERIVATIVES OF TETRABROMOBENZIMIDAZOLE, A PROCESS FOR THE PREPARATION THEREOF, A PHARMACEUTICAL COMPOSITION COMPRISING THE SAME, A METHOD OF USING THE SAME, A METHOD FOR MODULATING OR REGULATING SERINE/THREONINE KINASES, AND SERINE/THREONINE KINASES MODULATING AGENT” (SELVITA S.A., priority 2009, published 2011).

Experiments:
Assay in all cases: KINOMEscan Max
Format in all cases: binding
NEK3 = NEK3 (Homo sapiens, UniProt P51956)
How it was run: (§1)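 Steps: mix DNA-tagged kinase, immobilized active-site ligand and compound; let compound compete with ligand for the kinase; quantify the kinase retained by qPCR on its DNA tag.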

LOK = target: T1, LOK (Homo sapiens, UniProt O94804); details: 1 μM
T1 construct: purchased Ambit Kinomescan (contract panel)
How it was run: as §1

EPHA3 = target: T2, EPHA3 (Homo sapiens, UniProt P29320)
T2 construct: DNA tag (qPCR read-out)
How it was run: as §1

CSNK2A2 = target: T3, CSNK2A2 (Homo sapiens, UniProt P19784)
T3 construct: DNA tag (qPCR read-out)
How it was run: as §1

KIT(D816V) = target: T4, KIT(D816V) (Homo sapiens, UniProt P10721, D816V)
T4 construct: purchased Ambit (KINOMEscan Max service)
How it was run: as §1

PIK3CA(E545K) = PIK3CA(E545K) (Homo sapiens, UniProt P42336, E545K)
How it was run: as §1

EGFR(E746-A750del) = target: T5, EGFR(E746-A750del) (Homo sapiens, UniProt P00533, DEL746-750); details: 1 μM
T5 construct: purchased Ambit (KINOMEscan Max service)
How it was run: as §1

LCK = target: T6, LCK (Homo sapiens, UniProt P06239)
T6 construct: purchased Ambit Kinomescan (contract panel)
How it was run: as §1

[1] = target: ABL1(E255K)-phosphorylated) (Homo sapiens, UniProt P00519, E255K)
How it was run: as §1

p38-alpha = p38-alpha (Homo sapiens, UniProt Q16539); details: 1 μM
How it was run: as §1

BIKE = target: T7, BIKE (Homo sapiens, UniProt Q9NSY1)
T7 construct: purchased Ambit (KINOMEscan Max service)
How it was run: as §1

FLT3(K663Q) = target: T8, FLT3(K663Q) (Homo sapiens, UniProt P36888, K663Q)
T8 construct: purchased Ambit Kinomescan (contract screening)
How it was run: as §1

MST4 = target: T9, MST4 (Homo sapiens, UniProt Q9P289)
T9 construct: DNA tag (qPCR read-out)
How it was run: as §1

PKNB(M.tuberculosis) = PKNB(M.tuberculosis) (Mycobacterium tuberculosis, UniProt P9WI81)
TTK = target: T10, TTK (Homo sapiens, UniProt P33981)
T10 construct: purchased Ambit Kinomescan (contract screening service)
How it was run: as §1

CDC2L1 = target: T11, CDC2L1 (Homo sapiens, UniProt P21127)
T11 construct: DNA tag (qPCR label); purchased Ambit Kinomescan (contract screening)
How it was run: as §1

PIK3CA(Q546K) = target: T12, PIK3CA(Q546K) (Homo sapiens, UniProt P42336, Q546K)
T12 construct: DNA tag (qPCR read-out)
How it was run: as §1

p38-delta = p38-delta (Homo sapiens, UniProt O15264)
How it was run: as §1

MST1R = MST1R (Homo sapiens, UniProt Q04912)
How it was run: as §1

PIK3C2G = target: T13, PIK3C2G (Homo sapiens, UniProt O75747)
T13 construct: DNA tag (qPCR read-out)
How it was run: as §1

PIK3CB = target: T14, PIK3CB (Homo sapiens, UniProt P42338)
T14 construct: DNA tag (qPCR read-out)
How it was run: as §1

MYO3B = MYO3B (Homo sapiens, UniProt Q8WXR4)
How it was run: as §1

IRAK1 = target: T15, IRAK1 (Homo sapiens, UniProt P51617)
T15 construct: DNA tag (qPCR read-out)
How it was run: as §1

MAK = MAK (Homo sapiens, UniProt P20794)
How it was run: as §1

[2] = target: T16, JAK1(JH2domain-pseudokinase) (Homo sapiens, UniProt P23458); details: 1 μM
T16 construct: JAK1(JH2domain-pseudokinase)
How it was run: as §1

AMPK-alpha2 = target: T17, AMPK-alpha2 (Homo sapiens, UniProt P54646)
T17 construct: DNA tag (qPCR label); purchased Ambit Kinomescan (contract screening)
How it was run: as §1

IGF1R = target: T18, IGF1R (Homo sapiens, UniProt P08069)
T18 construct: purchased Ambit Kinomescan (contract panel, KINOMEscan Max)
How it was run: as §1

ULK3 = target: T19, ULK3 (Homo sapiens, UniProt Q6PHR2); details: 1 μM
T19 construct: purchased Ambit Kinomescan (contract screening service)
How it was run: as §1

CDK4-cyclinD1 = target: T20, CDK4-cyclinD1 (Homo sapiens, UniProt P11802)
T20 construct: DNA tag (qPCR label); purchased Ambit Kinomescan (contract screening)
How it was run: as §1

TYRO3 = target: T21, TYRO3 (Homo sapiens, UniProt Q06418)
T21 construct: purchased Ambit Kinomescan (contract screening service)
How it was run: as §1

RET = target: T22, RET (Homo sapiens, UniProt P07949)
T22 construct: DNA tag (qPCR read-out)
How it was run: as §1

DYRK1B = target: T23, DYRK1B (Homo sapiens, UniProt Q9Y463)
T23 construct: DNA tag (qPCR read-out); purchased Ambit Kinomescan
How it was run: as §1

TSSK1B = target: T24, TSSK1B (Homo sapiens, UniProt Q9BXA7)
T24 construct: purchased Ambit Kinomescan (contract screening service)
How it was run: as §1

PDPK1 = target: T25, PDPK1 (Homo sapiens, UniProt O15530)
T25 construct: purchased Ambit (KINOMEscan Max service)
How it was run: as §1

T5 sequence (P00533 with tags, fused parts or gaps DEL746-750): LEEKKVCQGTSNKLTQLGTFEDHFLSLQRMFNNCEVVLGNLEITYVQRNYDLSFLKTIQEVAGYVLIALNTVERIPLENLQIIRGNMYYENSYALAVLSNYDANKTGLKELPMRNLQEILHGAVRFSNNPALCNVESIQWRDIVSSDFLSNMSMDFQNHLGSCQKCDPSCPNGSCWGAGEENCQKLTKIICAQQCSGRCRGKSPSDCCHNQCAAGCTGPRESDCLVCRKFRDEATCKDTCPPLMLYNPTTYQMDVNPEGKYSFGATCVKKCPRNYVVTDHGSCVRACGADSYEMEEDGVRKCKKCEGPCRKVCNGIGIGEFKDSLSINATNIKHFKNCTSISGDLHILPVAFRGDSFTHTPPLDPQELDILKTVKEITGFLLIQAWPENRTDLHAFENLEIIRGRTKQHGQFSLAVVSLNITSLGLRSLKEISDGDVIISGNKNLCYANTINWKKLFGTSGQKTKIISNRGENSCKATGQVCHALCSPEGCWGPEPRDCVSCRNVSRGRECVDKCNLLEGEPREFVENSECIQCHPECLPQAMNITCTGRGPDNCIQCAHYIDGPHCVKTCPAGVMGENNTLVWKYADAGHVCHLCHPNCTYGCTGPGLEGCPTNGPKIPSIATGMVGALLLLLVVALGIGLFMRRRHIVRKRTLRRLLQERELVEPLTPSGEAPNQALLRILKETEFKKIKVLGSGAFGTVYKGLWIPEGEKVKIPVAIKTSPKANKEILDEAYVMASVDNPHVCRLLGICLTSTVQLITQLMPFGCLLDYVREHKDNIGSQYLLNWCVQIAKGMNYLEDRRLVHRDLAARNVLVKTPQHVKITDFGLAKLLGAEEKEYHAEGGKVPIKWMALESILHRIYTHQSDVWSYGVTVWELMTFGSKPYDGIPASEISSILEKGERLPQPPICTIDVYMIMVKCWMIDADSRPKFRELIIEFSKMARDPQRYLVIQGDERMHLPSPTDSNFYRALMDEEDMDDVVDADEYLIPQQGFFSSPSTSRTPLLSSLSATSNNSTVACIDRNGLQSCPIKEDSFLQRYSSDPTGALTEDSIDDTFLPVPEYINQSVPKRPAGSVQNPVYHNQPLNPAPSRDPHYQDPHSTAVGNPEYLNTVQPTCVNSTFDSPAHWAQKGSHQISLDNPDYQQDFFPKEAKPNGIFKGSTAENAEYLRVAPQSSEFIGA
T25 sequence (O15530 whole entry): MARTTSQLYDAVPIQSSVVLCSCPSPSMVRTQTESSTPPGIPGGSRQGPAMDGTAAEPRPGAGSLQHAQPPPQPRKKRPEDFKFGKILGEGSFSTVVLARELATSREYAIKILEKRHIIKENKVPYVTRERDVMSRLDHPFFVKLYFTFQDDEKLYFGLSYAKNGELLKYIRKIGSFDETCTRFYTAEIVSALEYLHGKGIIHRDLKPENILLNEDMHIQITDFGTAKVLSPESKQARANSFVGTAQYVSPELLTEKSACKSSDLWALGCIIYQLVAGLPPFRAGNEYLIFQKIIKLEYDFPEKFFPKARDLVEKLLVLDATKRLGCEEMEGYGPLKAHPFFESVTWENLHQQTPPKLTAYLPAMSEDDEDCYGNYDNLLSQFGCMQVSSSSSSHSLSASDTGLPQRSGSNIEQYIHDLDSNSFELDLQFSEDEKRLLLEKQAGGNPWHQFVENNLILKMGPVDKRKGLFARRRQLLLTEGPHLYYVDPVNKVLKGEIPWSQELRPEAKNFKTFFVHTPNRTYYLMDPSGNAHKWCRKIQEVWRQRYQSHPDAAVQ
Sequence of MYO3B (Q8WXR4 whole entry): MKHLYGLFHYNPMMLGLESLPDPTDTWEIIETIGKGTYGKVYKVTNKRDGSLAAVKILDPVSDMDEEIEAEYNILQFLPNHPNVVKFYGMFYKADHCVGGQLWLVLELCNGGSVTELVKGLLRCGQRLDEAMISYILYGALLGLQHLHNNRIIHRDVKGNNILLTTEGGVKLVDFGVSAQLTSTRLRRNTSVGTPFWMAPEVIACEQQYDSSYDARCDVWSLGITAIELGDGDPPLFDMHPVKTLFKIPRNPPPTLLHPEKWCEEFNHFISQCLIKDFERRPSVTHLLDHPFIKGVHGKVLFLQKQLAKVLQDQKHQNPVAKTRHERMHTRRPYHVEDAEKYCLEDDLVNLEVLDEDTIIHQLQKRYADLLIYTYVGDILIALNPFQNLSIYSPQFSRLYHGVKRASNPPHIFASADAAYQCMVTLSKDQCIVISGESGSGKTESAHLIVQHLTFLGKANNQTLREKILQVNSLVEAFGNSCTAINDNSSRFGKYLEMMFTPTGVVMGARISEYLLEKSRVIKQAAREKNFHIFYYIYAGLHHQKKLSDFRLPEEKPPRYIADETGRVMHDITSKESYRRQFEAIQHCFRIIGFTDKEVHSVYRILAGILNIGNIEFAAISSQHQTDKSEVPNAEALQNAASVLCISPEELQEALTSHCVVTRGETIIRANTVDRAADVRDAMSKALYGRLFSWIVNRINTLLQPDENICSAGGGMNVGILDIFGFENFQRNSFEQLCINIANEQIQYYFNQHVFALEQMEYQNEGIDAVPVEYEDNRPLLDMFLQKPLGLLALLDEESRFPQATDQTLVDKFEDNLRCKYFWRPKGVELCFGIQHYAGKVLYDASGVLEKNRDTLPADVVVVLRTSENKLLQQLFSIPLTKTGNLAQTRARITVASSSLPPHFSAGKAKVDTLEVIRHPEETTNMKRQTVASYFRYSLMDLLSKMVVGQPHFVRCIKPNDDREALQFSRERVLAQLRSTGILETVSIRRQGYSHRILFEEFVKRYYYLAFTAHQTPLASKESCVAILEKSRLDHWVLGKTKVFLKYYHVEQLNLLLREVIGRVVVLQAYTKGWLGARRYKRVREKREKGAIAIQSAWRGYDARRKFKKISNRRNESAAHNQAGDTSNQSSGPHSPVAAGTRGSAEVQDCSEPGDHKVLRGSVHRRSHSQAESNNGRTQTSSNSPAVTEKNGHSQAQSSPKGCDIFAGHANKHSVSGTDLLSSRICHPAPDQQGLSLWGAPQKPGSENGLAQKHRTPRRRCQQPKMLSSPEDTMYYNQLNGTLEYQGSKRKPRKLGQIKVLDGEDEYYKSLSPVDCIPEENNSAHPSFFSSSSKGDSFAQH
T7 sequence (Q9NSY1 whole entry): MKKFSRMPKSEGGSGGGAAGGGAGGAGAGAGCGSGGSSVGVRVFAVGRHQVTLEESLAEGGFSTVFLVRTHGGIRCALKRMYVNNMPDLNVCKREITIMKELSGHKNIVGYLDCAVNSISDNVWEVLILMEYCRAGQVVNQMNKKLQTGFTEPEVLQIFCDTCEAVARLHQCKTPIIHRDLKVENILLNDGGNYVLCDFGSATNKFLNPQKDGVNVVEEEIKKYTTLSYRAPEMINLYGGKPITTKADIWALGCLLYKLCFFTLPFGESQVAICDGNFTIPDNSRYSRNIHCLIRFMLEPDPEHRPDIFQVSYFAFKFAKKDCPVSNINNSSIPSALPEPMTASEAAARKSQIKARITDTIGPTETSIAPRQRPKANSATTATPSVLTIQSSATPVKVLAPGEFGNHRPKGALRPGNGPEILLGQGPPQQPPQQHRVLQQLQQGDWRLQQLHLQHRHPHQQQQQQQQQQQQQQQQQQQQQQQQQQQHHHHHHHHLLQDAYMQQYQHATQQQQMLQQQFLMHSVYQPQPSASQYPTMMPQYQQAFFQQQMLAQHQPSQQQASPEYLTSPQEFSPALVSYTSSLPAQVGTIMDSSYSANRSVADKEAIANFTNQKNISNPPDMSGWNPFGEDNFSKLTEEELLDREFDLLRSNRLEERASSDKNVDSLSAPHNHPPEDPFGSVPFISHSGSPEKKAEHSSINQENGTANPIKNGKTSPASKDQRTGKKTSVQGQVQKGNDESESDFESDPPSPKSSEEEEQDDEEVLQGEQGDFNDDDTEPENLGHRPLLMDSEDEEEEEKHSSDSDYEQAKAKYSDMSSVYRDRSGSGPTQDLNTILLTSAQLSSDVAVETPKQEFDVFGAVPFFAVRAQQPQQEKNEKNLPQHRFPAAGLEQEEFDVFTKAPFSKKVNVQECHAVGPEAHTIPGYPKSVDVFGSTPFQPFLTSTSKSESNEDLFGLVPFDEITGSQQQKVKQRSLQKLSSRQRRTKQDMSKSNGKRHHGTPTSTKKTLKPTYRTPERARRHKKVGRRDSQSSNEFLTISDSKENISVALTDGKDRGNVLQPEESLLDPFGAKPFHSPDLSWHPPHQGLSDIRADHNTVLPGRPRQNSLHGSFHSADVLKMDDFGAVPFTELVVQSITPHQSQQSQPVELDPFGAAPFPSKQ
T3 sequence (P19784 whole entry): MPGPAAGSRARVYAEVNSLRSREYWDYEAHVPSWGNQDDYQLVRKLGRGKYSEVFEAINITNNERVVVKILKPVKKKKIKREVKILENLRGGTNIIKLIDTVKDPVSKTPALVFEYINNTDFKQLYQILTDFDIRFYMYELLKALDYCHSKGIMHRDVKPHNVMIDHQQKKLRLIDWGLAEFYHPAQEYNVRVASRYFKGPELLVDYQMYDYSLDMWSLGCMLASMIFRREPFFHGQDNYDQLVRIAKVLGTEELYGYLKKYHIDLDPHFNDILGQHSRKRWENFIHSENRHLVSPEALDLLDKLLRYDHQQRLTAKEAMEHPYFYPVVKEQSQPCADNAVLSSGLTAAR
T16 sequence (P23458 583-855 limits assumed): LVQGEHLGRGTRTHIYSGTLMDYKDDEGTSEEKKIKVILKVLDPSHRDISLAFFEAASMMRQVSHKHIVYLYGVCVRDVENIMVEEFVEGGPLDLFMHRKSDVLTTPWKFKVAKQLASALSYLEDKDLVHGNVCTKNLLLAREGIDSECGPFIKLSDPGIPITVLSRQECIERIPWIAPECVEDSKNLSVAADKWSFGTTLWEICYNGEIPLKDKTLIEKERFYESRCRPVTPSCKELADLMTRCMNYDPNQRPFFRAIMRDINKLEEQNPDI

NCCCNc1nc2c(Br)c(Br)c(Br)c(Br)c2[nH]1 [Compound 11, N-(3-aminopropyl)-4,5,6,7-tetrabromo-1H-benzo[d]imidazol-2-amine]
remaining binding at 1 µM (NEK3): 93% | % binding (LOK): 100% | remaining binding at 1 µM (EPHA3): 89% | remaining binding at 1 µM (CSNK2A2): 90% | remaining binding at 1 µM (KIT(D816V)): 60% | remaining binding at 1 µM (PIK3CA(E545K)): 92% | % binding (EGFR(E746-A750del)): 72% | remaining binding at 1 µM (LCK): 100% | remaining binding at 1 µM [1]: 95% | % binding (p38-alpha): 100% | remaining binding at 1 µM (BIKE): 60% | remaining binding at 1 µM (FLT3(K663Q)): 97% | remaining binding at 1 µM (MST4): 87% | remaining binding at 1 µM (PKNB(M.tuberculosis)): 91% | remaining binding at 1 µM (TTK): 100% | remaining binding at 1 µM (CDC2L1): 100% | remaining binding at 1 µM (PIK3CA(Q546K)): 100% | remaining binding at 1 µM (p38-delta): 100% | remaining binding at 1 µM (MST1R): 100% | remaining binding at 1 µM (PIK3C2G): 100% | remaining binding at 1 µM (PIK3CB): 100% | remaining binding at 1 µM (MYO3B): 100% | remaining binding at 1 µM (IRAK1): 52% | remaining binding at 1 µM (MAK): 79% | % binding [2]: 93% | remaining binding at 1 µM (AMPK-alpha2): 100% | remaining binding at 1 µM (IGF1R): 100% | % binding (ULK3): 100% | remaining binding at 1 µM (CDK4-cyclinD1): 100% | remaining binding at 1 µM (TYRO3): 100% | remaining binding at 1 µM (RET): 100% | remaining binding at 1 µM (DYRK1B): 7.4% | remaining binding at 1 µM (TSSK1B): 100% | remaining binding at 1 µM (PDPK1): 84%
